Measured values from patent publication US20260256659A1, “COMPLEX FOR SEALING DENTINAL TUBULE, REAGENT FOR TREATING DENTIN HYPERSENSITIVITY, AND USE THEREOF” (ANHUI MEDICAL UNIVERSITY, priority 2023, published 2026).

System: Streptococcus mutans
Assay: In vitro antibacterial properties, turbidimetric method and plate coating method
Assay type: cell-based
Details: bacterial absorbance after 4 h incubation and bacterial number counting
Procedure: The anti-Streptococcus mutans performance of the prepared dentin sealing materials was evaluated by a turbidimetric method and a plate coating method.

[Cl-].[Cl-].[Sr+2] [Sr, strontium chloride]
ability to inhibit Streptococcus mutans: ability to inhibit Streptococcus mutans
